PubChem BioAssay AID1671426

Biological target: Proto-oncogene tyrosine-protein kinase Src (Homo sapiens) (UniProt P12931)
Experiment: PubChem AID 1671426
Conditions: Z'-LYTE FRET kinase activity, recombinant SRC N1

Chain of Proto-oncogene tyrosine-protein kinase Src (Homo sapiens) (P12931 whole entry, looked up): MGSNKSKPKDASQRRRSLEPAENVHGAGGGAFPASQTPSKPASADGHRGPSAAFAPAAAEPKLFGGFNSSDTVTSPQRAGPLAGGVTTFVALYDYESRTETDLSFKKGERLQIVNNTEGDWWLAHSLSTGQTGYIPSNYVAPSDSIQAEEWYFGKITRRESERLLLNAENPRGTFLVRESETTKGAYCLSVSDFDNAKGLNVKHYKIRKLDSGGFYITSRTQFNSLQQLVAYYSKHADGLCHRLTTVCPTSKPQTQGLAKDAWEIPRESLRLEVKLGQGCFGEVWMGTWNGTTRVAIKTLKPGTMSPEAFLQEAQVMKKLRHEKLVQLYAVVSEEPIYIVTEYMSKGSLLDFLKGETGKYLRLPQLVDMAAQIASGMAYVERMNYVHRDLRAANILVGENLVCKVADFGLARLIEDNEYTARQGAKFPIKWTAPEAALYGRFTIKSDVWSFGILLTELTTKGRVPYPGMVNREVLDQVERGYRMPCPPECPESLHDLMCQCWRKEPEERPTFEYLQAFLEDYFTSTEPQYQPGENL

SMILES: COc1cc2ncnc(Nc3cccc(Cl)c3)c2cc1OC
- IC50: 1980 nM
